Source: PubChem BioAssay (NCI)
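Assay format: 96-well plates, 48-hour exposure. TGI is the concentration that stops growth completely.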

How the values were obtained:
Assay in all cases: growth of human tumour cells (NCI), 48 h
[1] = tested on: KM20L2 colon
[2] = tested on: CAKI-1 renal
[3] = tested on: SNB-19 CNS
[4] = tested on: OVCAR-4 ovarian
[5] = tested on: SF-268 CNS
[6] = tested on: HCT-15 colon
[7] = tested on: HCC-2998 colon
[8] = tested on: HCT-116 colon
[9] = tested on: A549 NSCLC
[10] = tested on: KM12 colon
[11] = tested on: SW-620 colon
[12] = tested on: K-562 leukemia
[13] = tested on: RXF 393 renal
[14] = tested on: OVCAR-5 ovarian
[15] = tested on: LOX IMVI melanoma
[16] = tested on: SNB-75 CNS
[17] = tested on: OVCAR-3 ovarian
[18] = tested on: MALME-3M melanoma
[19] = tested on: IGROV1 ovarian
[20] = tested on: SNB-78 CNS
[21] = tested on: NCI-H226 lung
[22] = tested on: SK-OV-3 ovarian
[23] = tested on: HOP-92 NSCLC
[24] = tested on: M14 melanoma
[25] = tested on: MOLT-4 leukemia
[26] = tested on: SR leukemia
[27] = tested on: UACC-62 melanoma
[28] = tested on: NCI-H23 lung
[29] = tested on: SK-MEL-28 melanoma
[30] = tested on: UO-31 renal
[31] = tested on: TK-10 renal
[32] = tested on: ACHN renal
[33] = tested on: SK-MEL-2 melanoma
[34] = tested on: 786-0 renal
[35] = tested on: DMS 114 small cell lung
[36] = tested on: HL-60(TB) leukemia
[37] = tested on: U251 CNS
[38] = tested on: SN12C renal

Measured: TGI

N#CN1CCC2CC(=O)CCC2C1 (stereo not drawn)
> 100 µM: all assays above
